Values after ≈ are worked out from the molar mass of the structure shown. Where two headings read alike, the source gives them in different places.
What was measured:
[1] = tested on: S. pneumoniae isolates; test: MBC, Example 5; assay type: cell-based, Streptococcus pneumoniae
Experimental: [Micro-broth dilutions and 96 well trays are prepared by the following method: 90 μL of 4% LHB:CAMHB is aliquotted into all wells using a multichannel pipette. 90 μL of working antimicrobial stocks were no serial diluted down the tray by a 1:2 dilution. Negative broth controls and dilution control were taken into account when planning the set up of a 96 well tray.] 10 μL of bacterial suspension was then added to the appropriate wells in the 96 well tray. Appropriate positive (no antimicrobial), negative (no antimicrobial or bacteria) and negative dilution (a serial dilution control of antimicrobial and broth) controls were included in each assay. […] The MBC was determined by a 99.95% inhibition of S. pneumoniae, taking into account the dilution factor. MICs and MBCs were determined in quadruplicate and the mode was taken as the representative value. The MIC50, MIC90 and MIC range and MBC50, MBC90 and MBC range were determined according to CLSI standards. The MIC50 and MIC90, or MBC50 and MBC90, are defined by the lowest concentrations which, when all the MICs and MBCs of the isolates are arranged from lowest to highest, inhibited the 50th and 90th percentile of the total amount of isolates, respectively.

[2] = tested on: protein synthesis in S. aureus ATCC 29213; test: Macromolecular synthesis assay: protein synthesis ([3H] leucine); assay type: cell-based, Staphylococcus aureus; conditions: at the MIC
Experimental: (§1) Cells were grown at 35° C. overnight on Trypticase Soy agar. A colony from the plate was used to inoculate 10 ml of Mueller Hinton broth II (MHBII), and the culture was grown to early exponential growth phase (OD600==0.2 to 0.3) while incubating in a shaker at 35° C. and 200 rpm.
When cells reached early exponential phase, 100 μL of culture was added to triplicate wells containing various concentrations of test compound or control antibiotics (5 μL) at 20× the final concentration in 100% DMSO. A 5% DMSO treated culture served as the “no drug” control for all experiments. Cells were added in MHBII at 105% to account for the volume of drug added to each reaction or in M9 minimal medium for protein synthesis reactions. Following 15 min incubation at room temperature, either [^3H] thymidine (DNA synthesis), [^3H] uridine (RNA synthesis) or [^3H] leucine (protein synthesis) was added at 0.5-1.0 μCi per reaction, depending on the experiment. Reactions were allowed to proceed at room temperature for 15-30 min and then stopped by adding 12 μL of cold 5% trichloroacetic acid (TCA) or 5% TCA/2% casamino acids (protein synthesis only). […] After washing three times with 5 ml of cold 5% TCA, the filters were rinsed two times with 5 mL 100% ethanol, allowed to dry, and then counted using a Beckman LS3801 liquid scintillation counter.

[3] = tested on: cell wall synthesis in S. aureus ATCC 29213; test: Macromolecular synthesis assay: cell wall synthesis ([14C]N-acetylglucosamine); assay type: cell-based, Staphylococcus aureus
Experimental: as §1
Bacterial cells in early exponential growth phase were transferred to M9 minimal medium and added to 1.5 mL eppendorf tubes (100 μL/tube) containing various concentrations of test compound or control antibiotics (5 μL) at 20× the final concentration in 100% DMSO as described above. Following a 5 min incubation at 37° C., [^14C]N-acetylglucosamine (0.4 μCi/reaction) was added to each tube and incubated for 45 min in a 37° C. heating block. Reactions were stopped through the addition of 100 μL of 8% SDS to each tube. Reactions were then heated at 95° C. for 30 min in a heating block, cooled, briefly centrifuged, and spotted onto pre-wet HA filters ([…]). After washing three times with 5 mL of 0.1% SDS, the filters were rinsed two times with 5 ml of deionized water, allowed to dry, and then counted using a Beckman LS3801 liquid scintillation counter.

[4] = tested on: lipid synthesis in S. aureus ATCC 29213; test: Macromolecular synthesis assay: lipid synthesis ([3H] glycerol); assay type: cell-based, Staphylococcus aureus; conditions: at the MIC
Experimental: as §1
Bacterial cells were grown to early exponential growth phase in MHBII broth and added to 1.5 mL eppendorf tubes (in triplicate) containing various concentrations of test compound or control antibiotics as described above. Following a 5 min incubation at room temperature, [^3H] glycerol was added at 0.5 μCi per reaction.
Reactions were allowed to proceed at room temperature for 15 min and then stopped through the addition of 375 μL chloroform/methanol (1:2) followed by vortexing for 20 seconds after each addition. Chloroform (125 μL) was then added to each reaction, vortexed, followed by the addition of 125 μL dH2O and vortexing. Reactions were centrifuged at 13,000 rpm for 10 min, and then 150 μL of the organic phase was transferred to a scintillation vial and allowed to dry in a fume hood for at least 1 hr. Samples were then counted via liquid scintillation counting.

[5] = Release from Formulation B, Franz diffusion cells; assay type: physicochemical; conditions: absolute ethanol receptor, 32±1° C., up to 24 hours
Experimental: Franz diffusion cells were utilized to quantify the release rate of NCL 812 and NCL099 from its topical formulations. Five milliliters of absolute ethanol, which was chosen as the desired release medium, was loaded into the receptor chamber. Temperature of the receptor fluid was kept constant, at 32±1° C. using a water jacket. Acetyl cellulose membranes, with pore size of 0.45 μm (Pall Corporation) was selected and placed between donor and receptor chamber. Followed by that, a number of test samples (Formulation B) was loaded into the donor chamber. One milliliter of receptor fluid was collected at regular time intervals of 0.25, 0.50, 0.75, 1, 2, 3, 4, 5, 6, 7, 8 and 24 hours through the sampling port. One milliliter of fresh absolute ethanol was immediately returned to the receptor chamber. UV-HPLC was utilized to analyse the content of the receptor fluids attained.

## CC1(C)S[C@@H]2[C@H](NC(=O)[C@H](N)c3ccccc3)C(=O)N2[C@H]1C(=O)O [Ampicillin]
[1]; Streptococcus pneumoniae, isolate P21, Table 22, CAMHB diluent for NCL062, read-out: MBC
  MBC: 0.045 mg/L (≈ 0.129 µM)
[1]; Streptococcus pneumoniae, isolate WCH57, Table 22, CAMHB diluent for NCL062, read-out: MBC
  MBC: 0.09 mg/L (≈ 0.258 µM)
[1]; Streptococcus pneumoniae, isolate WCH158, Table 22, CAMHB diluent for NCL062, read-out: MBC
  MBC: 0.022 mg/L (≈ 0.063 µM)
[1]; Streptococcus pneumoniae, pneumococcal isolate A66.1, read-out: MBC
  MBC: 0.045 mg/L (≈ 0.129 µM)
[1]; Streptococcus pneumoniae, pneumococcal isolate D39, read-out: MBC
  MBC: 0.023 mg/L (≈ 0.0658 µM)
[1]; Streptococcus pneumoniae, pneumococcal isolate EF3030, read-out: MBC
  MBC: 0.023 mg/L (≈ 0.0658 µM)
[1]; Streptococcus pneumoniae, pneumococcal isolate L82016, read-out: MBC
  MBC: 0.023 mg/L (≈ 0.0658 µM)
[1]; Streptococcus pneumoniae, pneumococcal isolate P9, read-out: MBC
  MBC: 0.023 mg/L (≈ 0.0658 µM)
[1]; Streptococcus pneumoniae, pneumococcal isolate P21, read-out: MBC
  MBC: 0.023 mg/L (≈ 0.0658 µM)
[1]; Streptococcus pneumoniae, pneumococcal isolate TIGR4, read-out: MBC
  MBC: 0.023 mg/L (≈ 0.0658 µM)
[1]; Streptococcus pneumoniae, pneumococcal isolate WCH43, read-out: MBC
  MBC: 0.023 mg/L (≈ 0.0658 µM)
[1]; Streptococcus pneumoniae, pneumococcal isolate WCH46, read-out: MBC
  MBC: 0.045 mg/L (≈ 0.129 µM)
[1]; Streptococcus pneumoniae, pneumococcal isolate WCH57, read-out: MBC
  MBC: 0.023 mg/L (≈ 0.0658 µM)
[1]; Streptococcus pneumoniae, pneumococcal isolate WCH77, read-out: MBC
  MBC: 0.023 mg/L (≈ 0.0658 µM)
[1]; Streptococcus pneumoniae, pneumococcal isolate WCH86, read-out: MBC
  MBC: 0.023 mg/L (≈ 0.0658 µM)
[1]; Streptococcus pneumoniae, pneumococcal isolate WCH89, read-out: MBC
  MBC: 0.023 mg/L (≈ 0.0658 µM)
[1]; Streptococcus pneumoniae, pneumococcal isolate WCH92, read-out: MBC
  MBC: 0.09 mg/L (≈ 0.258 µM)
[1]; Streptococcus pneumoniae, pneumococcal isolate WCH137, read-out: MBC
  MBC: 0.023 mg/L (≈ 0.0658 µM)
[1]; Streptococcus pneumoniae, pneumococcal isolate WCH158, read-out: MBC
  MBC: 0.023 mg/L (≈ 0.0658 µM)
[1]; Streptococcus pneumoniae, pneumococcal isolate WCH184, read-out: MBC
  MBC: 0.045 mg/L (≈ 0.129 µM)
[1]; Streptococcus pneumoniae, pneumococcal isolate WCH211, read-out: MBC
  MBC: 0.023 mg/L (≈ 0.0658 µM)
[1]; Streptococcus pneumoniae, pneumococcal isolate WU2, read-out: MBC
  MBC: 0.023 mg/L (≈ 0.0658 µM)
[1]; Streptococcus pneumoniae, all S. pneumoniae isolates, read-out: MBC50
  MBC: 0.023 mg/L (≈ 0.0658 µM)
[1]; Streptococcus pneumoniae, all S. pneumoniae isolates, read-out: MBC90
  MBC: 0.023 mg/L (≈ 0.0658 µM)
[1]; all S. pneumoniae isolates
  MBC Range: 0.011 to 0.09 mg/L
[1]; pneumococcal isolate WCH16
  MBC: Autolysis

## N=C(N/N=C/c1ccc(Cl)cc1)N/N=C/c1ccc(Cl)cc1 [NCL812, 1,3-bis[(E)-(4-chlorophenyl)methyleneamino]guanidine]
[2]
  inhibition of protein synthesis: up to 97%
[3]; 4 fold the MIC
  inhibition of cell wall synthesis: approximately 68%
[3]; 8 fold the MIC
  inhibition of cell wall synthesis: ~52%
[4]
  inhibition of lipid synthesis: approximately 90%
[5]
  release profile from Formulation B: acceptable release profile

From patent US10253002B2, “Compounds and methods of treating infections” (Neoculi Pty Ltd., priority 2013, dated 2019)
